Source: patent US10344330B2, “Glatiramer acetate response biomarker mRNA potency assay” (Mylan Inc., priority 2013, dated 2019)

Assays:
[1] = test system: mouse IL-5 mRNA in primary LN cells; assay: Validation: mouse IL-5 mRNA by real-time PCR in LN cells of GA-immunized SJL/J mice (Example IV); assay type: cell-based; conditions: for IL-5 mRNA Fold Change: normalized to GAPDH; for induction of IL-5 mRNA: 20 μg/mL GA, 6 hours
Description: Three experiments were conducted using one batch of GA (Mylan GMA). The primary LN cells were stimulated by incubation with 6 concentrations (0.3 to 20 μg/mL) of the GA for 6 hours at 37° C. Total RNA was isolated from LN cells stimulated with GA or controls. cDNA was synthesized from the RNA and the mRNA levels of seven mouse cytokines, IL-2, IL-4, IL-5, IL-10, IL-13, interferon (IFN)-γ and tumor necrosis factor (TNF)-α, were quantitatively measured by a real-time PCR method.
Female SJL/J mice at 8-9 weeks of age were immunized by injection into four footpads using a 1 mL syringe with a 27-G, ½-inch needle. Each mouse received a total injection volume of 0.1 mL of GMA emulsified in CFA (about 10 μL into each of the front footpads and 40 μL into each of the hind footpads). Animals were immunized on Day 0. After injection, animals were placed back in their cages and housed ≤6 animals per cage.
Immunized animals were sacrificed by cervical dislocation on Day 10 following immunization. […] After centrifugation at about 200×g for 10 minutes at 4° C., the cell pellet was re-suspended in 40 mL of DCCM-1 medium for cell counting. A Trypan blue exclusion method was used to determine the cell density of viable cells in the suspension. After cell counting, the LN cells were suspended in enriched DCCM-1 medium at density of 7.5×10^6 cells/mL. LN cells (0.12 mL) were plated into each well of 96-well tissue culture plates.
Dilutions of GA (Mylan GMA) were prepared using enriched DCCM-1 medium as the diluent. GA dilutions (0.12 mL) were added in the assigned wells of 96-well tissue culture plates. The same volume of LN cells (0.12 mL) isolated from immunized animals was added to the assigned wells. A positive control and a negative control were always performed in the same assay by treating LN cells with 2.5 μg/mL ConA and 10 μg/mL MBP, respectively. The LN cells with mock stimulation protocols (enriched DCCM-1 medium) were used to monitor the background mRNA level of a cytokine. The plates were incubated at 37° C. in a humidified 5% CO2 incubator for 6 hr.
At the end of incubation time, culture medium from stimulated cells was removed by aspiration and the cells were lysed using Qiagen or Promega lysis buffer. The lysate was transferred to an RNeasy Mini column (Qiagen) or wells of the SV 96 Binding Plate (Promega) for RNA isolation and cDNA synthesis. All tested samples were run in triplicate.
The SV 96 Total RNA Isolation System (Promega; Cat. No. Z3505) was used for total RNA isolation. Assay procedures were carried out according to each manufacturer's protocol. RNA samples were stored at −70° C. until use. […] The assay procedure was carried out according to the manufacturer's protocol.
The plate was centrifuged at 2000 rpm for 2 minutes at 4° C. to spin down the contents and eliminate air bubbles. Samples were prepared and run in a 96-well plate using a Life Technologies Real-Time PCR system (previously Applied Biosystems; Model No. 7500) according to the manufacturer's recommendation. The mix for the reference gene was prepared in the same way using the reference gene primer.
A relative quantitation method was used to analyze changes in mIL-2, mIL-4, mIL-5, mIL-10, mIL-13, mIFN-γ and TNF-α expression in GA treated samples relative to the untreated control (Enriched DCCM-1 treated) samples using the following program:
Levels of mouse cytokine amplicons were normalized to an internal probe level (GAPDH) from the same samples. The following equations were used to calculate the relative increase in response to GA stimulation compared to the control sample (Enriched DCCM1 sample): […]

[2] = test system: IL-10 secreted by LN cells; assay: IL-10 secretion by GA-stimulated LN cells, MSD 9-plex ELISA (Example II); assay type: cell-based, mouse; conditions: for IL-10 secretion response ratio (treated cell medium to control DCCM1 medium): 21 hr
Description: (§1) Animals at 8 weeks of age were immunized by injection into four footpads using a 1 mL syringe with a 27-G, 1⁄2-inch needle. […] Ten days post-immunization, immunized animals were sacrificed via cervical dislocation. […] The LN cells were isolated by pressing the LN with the plunger end of a sterile syringe. […] Trypan blue exclusion method was used to determine the cell density of viable cells in the suspension. […] Cat. […] LN cells were plated into a 24-well tissue culture plate for drug stimulation. […] Cell debris was removed by centrifugation at ca. 200×g for 10 minutes at 4° C. Cytokines secreted by treated cells were determined on the day of collection by ELISA using mouse TH 1/TH 2 9-Plex Tissue Culture Kit (Meso Scale Discovery; Cat No. […]-2, Lot #: K0032839) which detects Th1 cytokines (IFN-γ, IL-2, IL-12, IL-1β, TNF-α, CXCL1) and Th2 cytokines (IL-4, IL-5 and IL-10). For IFN-γ, culture media also were assayed at 45 hours using mouse IFN-γ Tissue Culture Kit (Meso Scale Discovery; Cat No. […] For the positive control, 0.5 mL of LN cells (5×10^6 cells/well) were treated with 0.5 mL of ConA (5 μg/mL). For the negative control, 0.5 mL of LN cells (5×10^6 cells/well) were treated with 0.5 mL of MBP (20 μg/mL). The LN cells with mock stimulation (enriched DCCM1 medium) were used to monitor the background level of a cytokine. For the cytokine assays, calibration standards or samples were incubated in the MULTI-SPOT or the SINGLE-SPOT plate and each cytokine bound to its corresponding capture antibody. All test samples were run in duplicate. The amount of each cytokine on its distinct spot was quantified using a cytokine-specific detection antibody labeled with MSD SULFO-TAGTM reagent. Electrochemiluminescent signals from immobilized SULFO-TAGTM-labeled complexes on each spot from each well were captured by the MSD SECTOR Imager 6000, which produces a signal directly proportional to the amount of captured cytokine in a test sample. The levels of cytokines in test samples were derived by interpolation from calibration curves with calibration standards of known concentrations using reagents provided with the MSD kits. Kits were used according to the manufacturer's protocols. […] Data are expressed as a response ratio of cytokine concentration in treated cell medium to control DCCM1 medium.

[3] = test system: TNF-α secreted by LN cells; assay: TNF-α secretion by GA-stimulated LN cells, MSD 9-plex ELISA (Example II); assay type: cell-based, mouse; conditions: for TNF-α secretion response ratio (treated cell medium to control DCCM1 medium): 21 hr
Description: as §1

[4] = BALB/cByJ, immunized GA Intraplantar
[5] = BALB/cByJ, immunized GA Lower Limb
[6] = BALB/cByJ, immunized Mannitol Intraplantar
[7] = C57BL10J, immunized GA Intraplantar
[8] = C57BL10J, immunized GA Lower Limb
[9] = C57BL10J, immunized Mannitol Intraplantar
[10] = CD-1, immunized GA Intraplantar
[11] = CD-1, immunized Mannitol Intraplantar

**Q.** Which results are given for “Concanavalin A [ConA, reference compound]”?
**A.** IL-5 mRNA Fold Change ([1]; Experiment 1, 2.5 μg/mL): 22.4 fold; IL-5 mRNA Fold Change ([1]; Experiment 2, 2.5 μg/mL): 11.3 fold; IL-5 mRNA Fold Change ([1]; Experiment 3, 2.5 μg/mL): 31.0 fold; IL-10 secretion response ratio (treated cell medium to control DCCM1 medium) [2, 4]: 23.65; IL-10 secretion response ratio (treated cell medium to control DCCM1 medium) [2, 5]: 18.32; IL-10 secretion response ratio (treated cell medium to control DCCM1 medium) [2, 6]: 21.86; IL-10 secretion response ratio (treated cell medium to control DCCM1 medium) [2, 7]: 1.62; IL-10 secretion response ratio (treated cell medium to control DCCM1 medium) [2, 8]: 1.50; IL-10 secretion response ratio (treated cell medium to control DCCM1 medium) [2, 9]: 1.04; IL-10 secretion response ratio (treated cell medium to control DCCM1 medium) [2, 10]: 13.70; IL-10 secretion response ratio (treated cell medium to control DCCM1 medium) ([2]; CD-1, immunized GA Lower Limb): 8.64; IL-10 secretion response ratio (treated cell medium to control DCCM1 medium) [2, 11]: 10.96; TNF-α secretion response ratio (treated cell medium to control DCCM1 medium) [3, 4]: 27.69; TNF-α secretion response ratio (treated cell medium to control DCCM1 medium) [3, 5]: 10.87; TNF-α secretion response ratio (treated cell medium to control DCCM1 medium) [3, 6]: 11.61; TNF-α secretion response ratio (treated cell medium to control DCCM1 medium) [3, 7]: 2.53; TNF-α secretion response ratio (treated cell medium to control DCCM1 medium) [3, 8]: 2.02; TNF-α secretion response ratio (treated cell medium to control DCCM1 medium) [3, 9]: 2.10; TNF-α secretion response ratio (treated cell medium to control DCCM1 medium) [3, 10]: 17.59; TNF-α secretion response ratio (treated cell medium to control DCCM1 medium) ([3]; CD-1, immunized GA Lower Limb): 9.79; TNF-α secretion response ratio (treated cell medium to control DCCM1 medium) [3, 11]: 23.88

**Q.** Which “induction of IL-5 mRNA” value ([1]; SJL/J, Exp 1) does the source give for “L-glutamic acid polymer with L-alanine, L-lysine and L-tyrosine, acetate (salt) [GA]” here?
**A.** 5.2 fold

**Q.** What about the “induction of IL-5 mRNA” value ([1]; SJL/J, Exp 2) of the same molecule?
**A.** 5.3 fold

**Q.** What about the “induction of IL-5 mRNA” value ([1]; SJL/J, Exp 3) of the same molecule?
**A.** 15.2 fold

**Q.** What about the “induction of IL-5 mRNA (in words)” value ([1]; SJL/J, different concentrations of GA vs unstimulated LN cells) of the same molecule?
**A.** moderate induction

**Q.** And the “IL-10 secretion, dose response to GA (in words)” value ([2]; BALB/cByJ cells and CD1 cells)?
**A.** dose-dependent manner

**Q.** What about the “TNF-α secretion, dose response to GA (in words)” value ([3]; cells from any of the three mouse strains) of the same molecule?
**A.** No dose response

B1: MBP: myelin basic protein, a negative control (protein, UniProt P02686 1-304, looked up)
Myelin basic protein: MGNHAGKRELNAEKASTNSETNRGESEKKRNLGELSRTTSEDNEVFGEADANQNNGTSSQDTAVTDSKRTADPKNAWQDAHPADPGSRPHLIRLFSRDAPGREDNTFKDRPSESDELQTIQEDSAATSESLDVMASQKRPSQRHGSKYLATASTMDHARHGFLPRHRDTGILDSIGRFFGGDRGAPKRGSGKDSHHPARTAHYGSLPQKSHGRTQDENPVVHFFKNIVTPRTPPPSQGKGRGLSLSRFSWGAEGQRPGFGYGGRASDYKSAHKGFKGVDAQGTLSKIFKLGGRDSRSGSPMARR
**Q.** With B1 as the molecule, how does the “IL-5 mRNA Fold Change” value ([1]; Experiment 1, 10 μg/mL) read?
**A.** 0.8 fold

**Q.** And the “IL-5 mRNA Fold Change” value ([1]; Experiment 2, 10 μg/mL)?
**A.** 0.8 fold

**Q.** And the “IL-5 mRNA Fold Change” value ([1]; Experiment 3, 10 μg/mL)?
**A.** 2.6 fold

**Q.** And the “IL-10 secretion response ratio (treated cell medium to control DCCM1 medium)” value (from here on “IL-10 secretion response ratio”) [2, 4]?
**A.** 1.10

**Q.** What about the “IL-10 secretion response ratio” value [2, 5] of the same molecule?
**A.** 1.12

**Q.** And the “IL-10 secretion response ratio” value [2, 6]?
**A.** 1.07

**Q.** What about the “IL-10 secretion response ratio” value [2, 7] of the same molecule?
**A.** 1.04

**Q.** What about the “IL-10 secretion response ratio” value [2, 8] of the same molecule?
**A.** 1.00

**Q.** What about the “IL-10 secretion response ratio” value [2, 9] of the same molecule?
**A.** 1.08

**Q.** What about the “IL-10 secretion response ratio” value [2, 10] of the same molecule?
**A.** 1.39

**Q.** And the “IL-10 secretion response ratio” value ([2]; CD-1, immunized GA Lower Limb)?
**A.** 1.41

**Q.** What about the “IL-10 secretion response ratio” value [2, 11] of the same molecule?
**A.** 1.38

**Q.** And the “TNF-α secretion response ratio (treated cell medium to control DCCM1 medium)” value (“TNF-α secretion response ratio” for short) [3, 4]?
**A.** 0.98

**Q.** What about the “TNF-α secretion response ratio” value [3, 5] of the same molecule?
**A.** 1.07

**Q.** And the “TNF-α secretion response ratio” value [3, 6]?
**A.** 1.10

**Q.** What about the “TNF-α secretion response ratio” value [3, 7] of the same molecule?
**A.** 1.03

**Q.** What about the “TNF-α secretion response ratio” value [3, 8] of the same molecule?
**A.** 1.04

**Q.** What about the “TNF-α secretion response ratio” value [3, 9] of the same molecule?
**A.** 1.01

**Q.** And the “TNF-α secretion response ratio” value [3, 10]?
**A.** 1.34

**Q.** What about the “TNF-α secretion response ratio” value ([3]; CD-1, immunized GA Lower Limb) of the same molecule?
**A.** 1.54

**Q.** And the “TNF-α secretion response ratio” value [3, 11]?
**A.** 1.51
